According to ChEMBL document CHEMBL3638861, “Phenyl-substituted 2-imino-3-methyl pyrrolo pyrimidinone compounds as BACE-1 inhibitors, compositions, and their use” (2013):

Biological target: Beta-secretase 1 (Homo sapiens, UniProt P56817)
Assay: Time-Resolved FRET Assay: A homogeneous time-resolved FRET assay was used to determine IC50 values for inhibitors of the soluble human BACE1 catalytic domain. The assay monitored the increase of 620nm fluorescence that resulted from BACE1 cleavage of an APPswedish APPswe mutant peptide FRET substrate (QSY7-EISEVNLDAEFC-Europium-amide).

Sequence of Beta-secretase 1 (P56817 whole entry, the tested form may be a part): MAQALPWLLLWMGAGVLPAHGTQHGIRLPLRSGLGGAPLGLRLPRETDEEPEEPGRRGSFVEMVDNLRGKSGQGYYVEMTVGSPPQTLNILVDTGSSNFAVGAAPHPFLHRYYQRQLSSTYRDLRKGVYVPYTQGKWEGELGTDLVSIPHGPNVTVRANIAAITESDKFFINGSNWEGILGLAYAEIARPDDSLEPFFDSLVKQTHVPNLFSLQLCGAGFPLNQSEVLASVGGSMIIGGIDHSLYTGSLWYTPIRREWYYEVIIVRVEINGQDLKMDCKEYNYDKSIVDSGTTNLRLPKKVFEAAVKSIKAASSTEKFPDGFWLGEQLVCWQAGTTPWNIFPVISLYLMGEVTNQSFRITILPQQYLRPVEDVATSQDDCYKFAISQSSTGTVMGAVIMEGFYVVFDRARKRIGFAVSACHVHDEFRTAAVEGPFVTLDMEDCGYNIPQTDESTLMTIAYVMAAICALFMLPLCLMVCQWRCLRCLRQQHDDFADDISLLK

IC50: 42 nM | Ki: 8.9 nM
SMILES: COc1nc(N2C[C@H]3C(=O)N(C)C(=N)N[C@@]3(c3cc(F)ccc3Cl)C2)nc(C)c1F
